Results taken from US20260234185A1, “ANTI-AGING COMPOSITION COMPRISING PEPTIDE COMPLEX AS ACTIVE INGREDIENT” (priority 2023, published 2026).
Where no end group is shown, it is not given here.

How the values were obtained:
FGF21 protein = test: ELISA of FGF21 protein expression in adipocytes; format: cell-based; conditions: differentiated 3T3-L1 adipocytes, 0.2, 2, 20 μg/mL, ELISA (FIG. 2)
Protocol: An experiment was performed using adipocytes to determine whether the peptide complex prepared in Preparation Example 1 increases the expression level of FGF21 protein, a longevity-related protein, in adipocytes.
When 3T3-L1 preadipocytes reached 80% confluence, they were seeded at 5×10^3 cells/well in a 96-well plate and used for the experiment. Two days after reaching confluence, the medium was replaced with a differentiation-inducing medium to induce the differentiation into adipocytes, and two days after the induction, the cells were cultured for 2 days in a medium containing 10% FBS and 10 μg/mL insulin, and then the medium was replaced with 10% FBS every 2 days until differentiation into adipocytes. Once the differentiation was complete, the medium was replaced with a serum-free medium and cultured for 4 hours to induce starvation. The peptide complexes were treated at concentrations of 0.2 μg/mL, 2 μg/mL, and 20 μg/mL, and cultured for 48 and 72 hours, respectively. The complexes were dissolved by adding dissolution buffer thereto, and the proteins obtained by centrifugation at 4° C. and 12,000 rpm for 10 minutes were analyzed using a Quantikine ELISA Kit, and the absorbance was measured at 450 nm using a Microplate Reader.

[1] = test system: AMP-activated protein kinase (AMPK) gene; test: RT-PCR of AMPK gene expression in palmitate-treated adipocytes; format: cell-based; conditions: 3T3-L1 adipocytes, 25 μM palmitate 30 minutes; 0.2, 2, 20 μg/mL; 24 hours; RT-PCR vs palmitate control (PA) (FIGS. 4a, 4b)
Protocol: An experiment was performed to determine whether the peptide complex prepared in Preparation Example 1 increases the gene expression of longevity-related genes, FGF21, SIRT1, AMPK, and FOXO3A, in adipocytes in a state of insulin metabolic disorder induced by palmitate treatment.
When 3T3-L1 preadipocytes reached 80% confluence, they were seeded at 5×10^3 cells/well in a 96-well plate and used for the experiment. Two days after reaching confluence, the medium was replaced with differentiation-inducing medium to induce the differentiation into adipocytes, and two days after the induction, the medium was cultured for 2 days in a medium containing 10% FBS and 10 μg/mL insulin, and then the medium was replaced with 10% FBS every 2 days until their differentiation into adipocytes. After differentiation was complete, the medium was replaced with glucose-free medium, cultured for 16 hours, and then starvation was induced by culturing for 40 minutes in 100 μL KPPH buffer containing 2% BSA. After treating with 25 μM palmitate for 30 minutes, the peptide complexes were treated at concentrations of 0.2 μg/mL, 2 μg/mL, and 20 μg/mL, cultured for 24 hours, and RNA was extracted after 24 hours and RT-PCR was performed. […] Subsequently, the mRNA expression pattern was determined by agarose gel electrophoresis.

SIRT1 = test: Western blot of SIRT1 expression in myocytes with palmitate-induced insulin metabolic disorder; format: cell-based, mouse; conditions: C2C12 myocytes in insulin metabolic disorder induced by palmitate treatment; 0.2, 2, 20 μg/mL; 24 hours; Western blot (FIGS. 7a, 7b)
Protocol: An experiment was performed to determine whether the peptide complex increases AMPK phosphorylation and SIRT1 expression levels in myocytes in a state of insulin metabolic disorder induced by palmitate treatment.
C2C12 cells, mouse-derived myoblasts, were cultured in DMEM medium containing 1% P/S and 2% BCS. When the cell confluency reached 70-80%, the cells were seeded in a 6-well culture plate. When the cell confluency in the 6-well culture plate reached 100%, the medium was replaced with differentiation medium (1% P/S, 2% horse serum), and thereafter, the differentiation medium (1% P/S, 2% horse serum) was replaced once every two days. Five days after the first replacement, the peptide complex was treated at concentrations of 0.2 μg/mL, 2 μg/mL, and 20 μg/mL and cultured for 24 hours. The group untreated with the peptide complex was used as the control. After dissolving by adding dissolution buffer thereto, the proteins obtained were centrifuged at 4° C. and 12,000 rpm for 30 minutes, and quantified using a BCA kit. The proteins were subjected to sodium dodecyl sulfate-polyacrylamide gel electrophoresis (SDS-PAGE) and then electrotransferred onto a membrane. The membrane with the proteins attached was blocked by treating it with 5% skim milk, and then the primary antibody was reacted overnight at 4° C. […]

peptide complex: prepared by mixing equal amounts of the peptide of SEQ ID NO: 1 (LKTRN) and the peptide of SEQ ID NO: 2 (KGSATGWMA) (also: mixture of two peptides)
increased: expression level of FGF21 protein (FGF21 protein; 48 hours) | expression level of FGF21 protein (FGF21 protein; 72 hours) | expression of AMP-activated protein kinase (AMPK) gene [1] | expression level of SIRT1 protein (SIRT1)
